Results taken from patent US20250144224A1, “ABL INHIBITORS AND USES THEREOF” (The Regents of the University of California, priority 2021, published 2025).

Assays:
[1] = Parallel artificial membrane permeability assay (PAMPA); format: in vitro ADME; conditions: 100 μM in PBS, 5 h, LC-MS
Protocol: PAMPA was performed by Quintara Discovery using the BioCoat Pre-coated PAMPA Plate System (Corning) as described previously (15) and based on manufacturer's recommendations. All compounds were assessed at 100 μM in PBS. Compound concentrations in donor and acceptor compartments were quantified using liquid chromatography-mass spectrometry (LC-MS) 5 h following compound addition into the donor compartment.

[2] = system: intracellular BCR-ABL1 in K562 CRISPRi/a cells; test: Immunoblots of pharmacodynamic markers of BCR-ABL1 inhibition; format: cell-based, human; conditions: nanomolar concentrations (10 nM)
Protocol: FIGS. 3A-3F. […] Data represent two biological replicates. […] Data represent three biological replicates.
Cells (500,000 cells in 2 mL per well) were seeded into 6-well plates and incubated at 37° C. overnight. Following treatment with compounds at the concentrations and times indicated, cells were placed over ice, transferred to 2 mL microcentrifuge tubes, and pelleted at 500 g, 4° C. The pelleted cells were washed twice with ice-cold phosphate-buffered saline (PBS) and stored at −80° C. […] Proteins were separated by polyacrylamide gel electrophoresis (PAGE), transferred to 0.2 μm pore size nitrocellulose membranes (Bio-Rad) and blocked using blocking buffer [5% bovine serum albumin (Millipore) in Tris-buffered saline, 0.1% Tween 20 (TBST) supplemented with 0.02% NaN3]. Membranes were probed with primary antibodies against FKBP12 (ab58072) from Abcam and p-ABL1^Y245 (2861), p-CRKL^Y207 (3181), IFITM1 (13126), IFITM2 (13530), IFITM3 (59212), p-STAT5^Y694 (4322), and Tubulin (3873) from Cell Signaling Technology diluted (1:1000) in blocking buffer. After primary antibody incubation, membranes were treated with IRDye secondary antibodies (LI-COR Biosciences) according to manufacturer's recommendations and scanned on an Odyssey Imaging System (LI-COR Biosciences). Immunoblot scans were processed using ImageStudioLite 5.2.5 (LI-COR).

[3] = target: T1, ABL1 kinase domain (Homo sapiens, UniProt P00519); test: ATP-site kinase pulldown (KdELECT competition binding); conditions: 100-fold molar excess asciminib
T1 sequence (P00519 242-493 limits assumed): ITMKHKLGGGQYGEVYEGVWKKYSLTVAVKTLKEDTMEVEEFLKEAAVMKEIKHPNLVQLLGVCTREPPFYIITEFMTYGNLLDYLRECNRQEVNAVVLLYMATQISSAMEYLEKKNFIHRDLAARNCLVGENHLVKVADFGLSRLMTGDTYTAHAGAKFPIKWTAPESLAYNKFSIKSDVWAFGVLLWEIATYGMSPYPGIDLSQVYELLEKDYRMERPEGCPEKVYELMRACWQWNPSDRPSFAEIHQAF

[4] = system: K562 CRISPRi or CRISPRa cells with IFITM1-3 expression modulation; test: Chemical-genetic interaction mapping (IC50 shift in cell viability assay); format: cell-based, human; conditions: IFITM1-3 knockdown (CRISPRi) or overexpression (CRISPRa), 72 h
Protocol: Cell viability was assessed by CellTiter-Glo (CTG) Luminescent Cell Viability Assay (Promega). Cells were equilibrated to room temperature before the addition of diluted (1:4 CTG reagent:PBS) CTG reagent (100 μL per well). Plates were agitated on an orbital shaker and luminescence signal was measured on a SpectraMax M5 (Molecular Devices) or Spark (Tecan) plate reader. Repeated measurements of luminescence were performed as technical replicates to determine incubation times optimal for signal-to-noise. Luminescence measurements were normalized to DMSO-treated values to determine relative cell viability.
Cells treated with compounds were evaluated for viability as described herein. […] The same top concentrations were used in K562 CRISPRa cells with the exception of HJB97 (1 μM), JQ1 (1 μM), MZ1 (1 μM), and dBET6 (100 nM). Using Prism 9 (GraphPad Software), a 4-parameter nonlinear regression model was fit to the viability data to determine IC50 values. IC50 values of sgRNA+ cells were normalized to that of non-sgRNA expressing cells to determine sensitivity/resistance chemical-genetic interactions mapped in FIG. 4B.

[5] = system: K562 cells (CRISPR base-edited Bcr-Abl T315I); test: CellTiter-Glo cell viability, K562 Bcr-Abl T315I; conditions: Homo sapiens, K562, 72 h, read-out: EC50 (nM) CTG K562 T315I
[6] = system: kinases labeled by XO44 in K562 CRISPRi cells; test: Live cell kinase occupancy profiling with XO44 probe; conditions: 100 nM, 4 h pretreatment, then XO44, live K562 CRISPRi cells
[7] = system: K562 cells (wild-type); test: CellTiter-Glo cell viability, K562 wild-type; conditions: Homo sapiens, K562, 72 h, read-out: EC50 (nM) CTG K562 wt

artificial membrane permeability by PAMPA [1]: impermeable
EC50 [5]: > 300 nM
EC50 [7]: 2.47 nM
SMILES: Cc1nc(Nc2ncc(C(=O)Nc3c(C)cccc3Cl)s2)cc(N2CCN(C(=O)CCOCCOCCOCCOCCOCCOCCOCCOCCOCCOCCOCCOCCNC(=O)C3CCN(c4ncc(C(=O)Nc5ccc(OC(F)(F)Cl)cc5)cc4-c4ccn[nH]4)CC3)CC2)n1 [DasatiLink-1]
time required for maximal inhibition of target [2]: multiple hours
effect of excess asciminib on ability to occupy the ATP-site [3]: impaired the ability of DasatiLink-1 to occupy the ATP-site
IFITM dependency of potency (IC50 shift in cell viability assay) [4]: validated the IFITM dependency
intracellular kinase occupancy (kinome-wide selectivity) [6]: observable intracellular occupancy of only a single kinase
